Data: paper PMC8009417, “Selective killing of homologous recombination-deficient cancer cell lines by inhibitors of the RPA:RAD52 protein-protein interaction” (PLoS ONE, 2021)
pEC50, pIC50: −log10 of the molar value.

Assays:
[1] = molecular target: RAD52 ssDNA binding domain; set-up: method as in PMID 26548611; settings: read-out: IC50, allosteric inhibitor of the RAD52 ssDNA binding domain; cited from earlier work
[2] = tested on: PARPi-resistant UWB1.SYr13 cells; experiment: Cell viability assay (PrestoBlue, 72 h), UWB1.SYr13; assay type: cell-based; settings: Homo sapiens, estimated from the graphs
Description: (§1) BRCA1-deficient UWB1.289 cells corrected with wild-type BRCA1 gene (BRCA1+; closed triangle) and parental BRCA1-deficient UWB1.289 (BRCA1-; closed circle). Two PARPi-resistant cell lines derived from UWB1.289, UWB1.289.SYr12 (closed diamond) and UWB1.SYr13 (X), were also examined.
(§2) UWB1.289 (a gift from Dr. Lee Zou, Harvard Medical School, Boston, MA) were derived from a serous ovarian carcinoma with a germline BRCA1 mutation and a deletion of the wild-type allele. […] Two PARP-resistant cell lines, SYr12 and SYr13, were derived from the UWB1.289. The Mammary Epithelial growth media, along with SupplementMix solution for UWB1 cell lines, were obtained from PromoCell GmbH and mixed as described.
(§3) Cells were seeded 5 x 10^3 cells per well in 96-well plates in a 90 μL volume per well one day before treatment. Cells in 96-well plates were incubated with increasing concentrations of the compound or vehicle control (1% DMSO) for 72 hours. Each treatment plate contained nine concentrations of a compound in sextuplicate. Growth inhibition was determined using PrestoBlue reagent (Life Technologies, #A13261). Fluorescent measurements were taken using a Spectramax M5 plate reader (MDS). To assess cells’ replication in the absence of compounds as a control, six wells on each plate were treated with vehicle to be read in triplicate at the initial treatment day (T0) and at 72-hour read (T100).

[3] = tested on: BRCA2-deficient PE01 ovarian cancer cells (BRCA2-); experiment: Cell viability assay (PrestoBlue, 72 h), PE01; assay type: cell-based; settings: Homo sapiens, estimated from the graphs
Description: BRCA2-deficient PE01 cell line (a gift from Dr. Toshiyasu Taniguchi, Tokai University, Japan) were derived from an ovarian cancer patient. BRCA2-proficient “revertant” cell line, C4-2 is one of eight clones derived from PE01 that has acquired resistance to both cisplatin and PARPi due to a secondary mutation that restored the BRCA2 function. PE01 and PE01 C4-2 were grown and maintained in DMEM high glucose (Hyclone) supplemented with 10% Fetal Bovine Serum (FBS, Invitrogen).
as §3

[4] = molecular target: T1, RPA:RAD52 protein-protein interaction (Homo sapiens, UniProt P43351); experiment: FluorIA (Fluorescence-based protein-protein Interaction Assay), GFP-RAD52 binding to plate-coated RPA; settings: polynomial curve fitting; 15 dose concentrations 0.03–500 μM, triplicate; RAD52(1–303) positive control; read-out: EC50 in FluorIA (inhibition of RPA:RAD52 PPI)
T1 construct: made in house
T1 sequence (P43351 1-418): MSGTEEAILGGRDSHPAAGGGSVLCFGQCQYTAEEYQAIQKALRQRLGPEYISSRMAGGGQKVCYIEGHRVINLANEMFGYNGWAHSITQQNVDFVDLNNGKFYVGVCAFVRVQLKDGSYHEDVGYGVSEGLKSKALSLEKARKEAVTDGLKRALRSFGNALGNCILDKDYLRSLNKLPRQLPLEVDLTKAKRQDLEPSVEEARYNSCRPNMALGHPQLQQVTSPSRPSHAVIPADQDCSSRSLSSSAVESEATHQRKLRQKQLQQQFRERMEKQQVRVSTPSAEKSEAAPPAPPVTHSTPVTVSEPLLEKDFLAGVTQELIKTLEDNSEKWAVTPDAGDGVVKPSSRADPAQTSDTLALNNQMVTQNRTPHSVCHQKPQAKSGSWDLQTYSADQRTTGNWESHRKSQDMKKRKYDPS
Description: A newly developed fluorescence-based assay for detecting protein-protein interactions, FluorIA was used to identify SMIs of RPA:RAD52 PPI. The detailed FluorIA protocol is published elsewhere. Briefly, 384-well plates (Thermo Fisher Scientific, #460518) were coated with purified RPA. Then compounds or controls were added and incubated with freshly prepared GFP-RAD52. RAD52(1–303) without GFP-tag and buffer (including DMSO) only were used as controls. Then the relative fluorescence (RFU) was measured using a POLARstar OPTIMA plate reader (BMG LABTECH) on emptied plates at an excitation/emission (for eGFP) of 485/520 nm at 2500 gain setting.
Three chemical libraries the 355-member SelleckChem Kinase Inhibitor Library, the 1200-member Prestwick Chemical Library, and the 100,000-member ChemBridge library were used for the screening. The screening of the SelleckChem Kinase Inhibitor and the Prestwick libraries were performed at 10 and 100 μM each in duplicate. The screening of the ChemBridge library was conducted at 100 μM. […] The statistical criteria for a hit were fully described in Al-Mugotir et al.. Each hit was verified in triplicate at 10 and 100 μM.
The in vitro EC50 value of each hit was determined with FluorIA. The chemicals were serially diluted by two-fold increments from 0.030 to 500 μM and analyzed in triplicate with FluorIA. RAD52(1–303) was used as a positive control and buffer with DMSO was used as a negative control. Candidate SMIs with strong inhibition were purchased, and a 1D NMR analysis was carried out to verify their identities. The eleven candidates SMIs were purchased as follows: 5137134, 5246481, 52614577,5316833, 5373030, and 7623574 from Chembridge HIT2LEAD, 5989499 from Wuxi lab network, 5375405 from Aronis, quinacrine and mitoxantrone from Sigma Aldrich, and doxorubicin from LC labs. D-I03 was purchased from Molport. Their effectiveness in inhibiting the RPA:RAD52 PPI was confirmed after purchase with the FluorIA as described above (S1 Fig).
Supplementary file pone.0248941.s001.tif: S1 Fig Validation experiments of eleven hits with the FlourIA. Sixteen treatment concentrations were used (0.030–500 μM) increasing by two-fold increments of each molecule/drug obtained as a hit in HTS FluorIA. RAD52(1–303) without GFP-tag and buffer (including DMSO) only were used as controls. Percent inhibition was calculated as follows: [(RFUSMI—RFURAD52(1–303)) / (RFUDMSO—RFURAD52(1–303))]*100, where RFU is relative fluorescence unit. An average of triplicate measurements was used. The treatment points for quinacrine and doxorubicin beyond 125 μM were showing characteristics of aggregation and were not used. (TIF) Click here for additional data file.

[5] = tested on: UWB1.289 cells corrected with wild-type BRCA1 gene (BRCA1+); experiment: Cell viability assay (PrestoBlue, 72 h), UWB1.289+BRCA1; assay type: cell-based; settings: Homo sapiens, UWB1289, estimated from the graphs
Description: as §1, §2, §3

[6] = tested on: PARPi-resistant UWB1.289.SYr12 cells; experiment: Cell viability assay (PrestoBlue, 72 h), UWB1.289.SYr12; assay type: cell-based; settings: Homo sapiens, estimated from the graphs
Description: as §1, §2, §3

[7] = tested on: BRCA1-deficient HCC1937 breast cancer cells (empty vector, BRCA1-); experiment: Cell viability assay (PrestoBlue, 72 h), HCC1937 with empty vector; assay type: cell-based; settings: Homo sapiens, estimated from the graphs
Description: (§4) Fig 2 BRCA1-deficient HCC1937 breast cancer cell line survival assay. BRCA1-deficient HCC1937 cells corrected with wild-type BRCA1 gene (BRCA1+; closed triangle), and with an empty vector (BRCA1-; closed circle) were examined. For each experiment (Figs 2–4), cell lines were treated with nine concentrations of (A) quinacrine, (B) mitoxantrone, and (C) doxorubicin in 96-well culture plates at 5x10^3 cell/well density. Each treatment point was made in sextuplicate. Treated cells were incubated for 72 hours at 37°C before assessing cell viability using PrestoBlue. Data were normalized to vehicle control. The experiment was repeated three times. Error bars indicate the standard deviation.
(§5) The HCC1937 cell line (a gift from Dr. Simon Powell Memorial Sloan Kettering (MSK), New York) was derived from a mammary gland primary ductal carcinoma at the early onset of a tumor. This TNBC patient carried a germline mutation in BRCA1, resulting in carboxy-terminal truncated protein and loss of the second BRCA1 allele. BRCA1-restored and empty vector cell lines were also obtained by transfection of a vector containing a full-length human BRCA1 cDNA or an empty vector, respectively. The HCC1937 cell lines were cultured as described.
as §3

[8] = tested on: BRCA2-revertant PE01 C4-2 cells (BRCA2+); experiment: Cell viability assay (PrestoBlue, 72 h), PE01 C4-2; settings: Homo sapiens, C4-2, 72 h, read-out: EC50, cell viability
[9] = tested on: HCC1937 cells corrected with wild-type BRCA1 gene (BRCA1+); experiment: Cell viability assay (PrestoBlue, 72 h), HCC1937+BRCA1; assay type: cell-based; settings: Homo sapiens, estimated from the graphs
Description: as §4, §5, §3

[10] = tested on: BRCA1-deficient UWB1.289 ovarian cancer cells (BRCA1-); experiment: Cell viability assay (PrestoBlue, 72 h), UWB1.289; assay type: cell-based; settings: Homo sapiens, UWB1289, estimated from the graphs
Description: as §1, §2, §3

[11] = molecular target: RPA, endogenous in U2OS cells (human (endogenous in U2OS)) (UniProt P15927)
Sequence of RPA, endogenous in U2OS cells (human (endogenous in U2OS)) (P15927 whole entry, looked up): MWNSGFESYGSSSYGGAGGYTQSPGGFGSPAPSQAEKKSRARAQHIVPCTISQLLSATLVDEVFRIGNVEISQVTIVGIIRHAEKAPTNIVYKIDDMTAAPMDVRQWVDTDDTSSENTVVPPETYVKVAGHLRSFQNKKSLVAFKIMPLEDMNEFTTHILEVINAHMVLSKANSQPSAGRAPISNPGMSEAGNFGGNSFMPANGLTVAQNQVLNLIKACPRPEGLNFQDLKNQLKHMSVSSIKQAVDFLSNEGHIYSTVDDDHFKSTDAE

pEC50 [4] | Molecule | pEC50 [2] | pEC50 [3] | pEC50 [5] | pEC50 [6] | pEC50 [7] | pEC50 [8] | pEC50 [9] | pEC50 [10] | other results
– | NC(Cc1cc(O)c(O)cc1O)C(=O)O (racemic) [6-hydroxy-DL-dopa] | – | – | – | – | – | – | – | – | pIC50 [1]: 5.96
4.01 | CCN(CC)CCCC(C)Nc1c2ccc(Cl)cc2nc2ccc(OC)cc12 (stereo not shown) [Quinacrine, quinacrine] | < 5.00 | 5.42 | < 5.00 | < 5.00 | 5.77 | 5.35 | 5.34 | 5.27 | –
4.18 | Cc1cc2nc3ccc(N(C)C)cc3nc2cc1N [compound 5316833] | – | – | – | – | – | – | – | – | –
3.98 | Nc1cc(S(=O)(=O)O)cc2cc(S(=O)(=O)O)cc(O)c12 [compound 5137134] | – | – | – | – | – | – | – | – | –
– | RAD52, endogenous in U2OS cells (from UniProt P43351 1-418) (natural protein) | – | – | – | – | – | – | – | – | inhibition of single-strand annealing (SA-GFP reporter in U2OS-SA cells, FACS) by mitoxantrone, an inhibitor of the RPA:RAD52 interaction, at 4 nM [11]: 72%

Molecule | pEC50 [4] | pEC50 [2] | pEC50 [3] | pEC50 [5] | pEC50 [6] | pEC50 [7] | pEC50 [8] | pEC50 [9] | pEC50 [10] | other results
COc1cccc2c1C(=O)c1c(O)c3c(c(O)c1C2=O)C[C@@](O)(C(=O)CO)C[C@@H]3O[C@H]1C[C@H](N)[C@H](O)[C@H](C)O1 [Doxorubicin, doxorubicin] | 5.00 | 5.60 | 7.30 | 5.60 | 6.10 | 6.52 | 6.15 | 5.82 | 6.52 | –
